A value given as a limit tells only on which side of the number the result lay.

In general, IC50 refers to the concentration that gives 50% inhibition.

In one data set the test system is CD84. Put plainly: siRNA dose response, CD84 mRNA knockdown, Dual-Glo Luciferase Assay. Format: cell-based, human. The conditions noted are these: Hepa1-6 + reporter plasmid, 24 hr. As to the method: (§1) Dose response curves for siRNAs were generated in vitro using a variety of cell lines according to Table 4.
(§2) Briefly, cells were seeded in 96-well plates and reverse transfected with siRNA, Lipofectamine® 2000 (0.5 uL/well; ThermoFisher), and, in some cases, a reporter plasmid (50 ng/well). The reporter plasmid (psiCHECK™-2, Promega) encoded both firefly luciferase and the gene of interest fused to renilla luciferase; silencing of the gene of interest results in proportional silencing of renilla luciferase but leaves firefly luciferase unaffected as an internal control.
(§3) After 24 hr incubation at 37° C., mRNA knockdown was measured using an endpoint assay. For targets without a reporter plasmid, a branched DNA (bDNA) assay was performed according to the manufacturer's instructions (QuantiGene® Singleplex Gene Expression Assay, ThermoFisher) to measure both the target gene and GAPDH (housekeeping gene) mRNA. Data are plotted as siRNA concentration (nM) vs. remaining mRNA (ratio of target gene to GAPDH, normalized to mock siRNA-transfected cells). For targets with a reporter plasmid, a Dual-Glo® Luciferase Assay was performed according to the manufacturer's instructions (Promega) to measure firefly and renilla luciferase expression. Data are plotted as siRNA concentration (nM) vs. remaining mRNA (ratio of renilla to firefly luminescence, normalized to mock siRNA-transfected cells).
(§4) For all dose response curves, a 4-parameter logistic model was applied to determine the IC50 of each siRNA sequence (Table 5 and FIG. 2). Data shown in Table 5 and FIG. 2 represent the mean of quadruplicates, +/−standard deviation.
Consider “XD-09619: siRNA targeting CD84 (sense 5'-ccuuAcAGcAuAAcuAAuudTsdT-3'; antisense 5'-AAUuAGUuAUGCUGuAAGGdTsdT-3'; RNA with 2'-O-methyl and phosphorothioate modifications, case key not given here, as printed in the source, key not given here)”, for which the IC50 was below 0.005 nM.

The subject of the next data set is CD48. The experiment in a line: siRNA dose response, CD48 mRNA knockdown, Dual-Glo Luciferase Assay. Format: cell-based, human. The conditions noted are these: Hepa1-6 + reporter plasmid, 24 hr. As to the method:
as §1, §2, §3, §4
For the substance “XD-09720: siRNA targeting CD48 (sense 5'-cucuGGAAuuGcuacuGcudTsdT-3'; antisense 5'-AGcAGuAGcAAUUCcAGAGdTsdT-3'; as printed in the source, key not given here)”, the IC50 was determined as 0.012 nM.
On the same count and under the same terms, in the case of “XD-09721: siRNA targeting CD48 (sense 5'-cuAAccuGGuuuuauAcuudTsdT-3'; antisense 5'-AAGuAuAAAACcAGGUuAGdTsdT-3'; RNA with 2'-O-methyl and phosphorothioate modifications, case key not given here, as printed in the source, key not given here)” it was 0.009 nM; in that of “XD-09722: siRNA targeting CD48 (sense 5'-cuuucGAccAGAAgAuuGudTsdT-3'; antisense 5'-AcAAUCUUCUGGUCGAAAGdTsdT-3'; RNA with 2'-O-methyl and phosphorothioate modifications, case key not given here, as printed in the source, key not given here)”, 0.014 nM.
Take “XD-09723: siRNA targeting CD48 (sense 5'-uccAGAAAAucuAaGuAcudTsdT-3'; antisense 5'-AGuACUuAGAUUUUCUGGAdTsdT-3'; as printed in the source, key not given here)”: the IC50 worked out at 0.03 nM.
Consider “XD-09724: siRNA targeting CD48 (sense 5'-gaAuccAAAuuuAaAGGcAdTsdT-3'; antisense 5'-UGCCUUuAAAUUUGGAUUCdTsdT-3'; as printed in the source, key not given here)”, for which the half-inhibitory concentration (IC50) was 0.055 nM.
The same measure, in the same setting: with “XD-09725: siRNA targeting CD48 (sense 5'-cccAAGccuGucAucAAAAdTsdT-3'; antisense 5'-UUUUGAUGAcAGGCUUGGGdTsdT-3'; RNA with 2'-O-methyl and phosphorothioate modifications, case key not given here, as printed in the source, key not given here)” the figure was 0.022 nM; with “XD-09726: siRNA targeting CD48 (sense 5'-acAAcuGuuAucugAAAcudTsdT-3'; antisense 5'-AGUUUcAGAuAAcAGUUGUdTsdT-3'; as printed in the source, key not given here)”, 0.017 nM; with “XD-09727: siRNA targeting CD48 (sense 5'-ccuGGcGAGucuGuAAAcudTsdT-3'; antisense 5'-AGUUuAcAGACUCGCcAGGdTsdT-3'; as printed in the source, key not given here)”, 0.046 nM.
“XD-09728: siRNA targeting CD48 (sense 5'-cuGGcGAGucuGuaAAcuAdTsdT-3'; antisense 5'-UagUUuAcAGACUCGCcAGdTsdT-3'; as printed in the source, key not given here)”: the IC50 worked out at 0.032 nM.
The same measure, in the same setting: with “XD-09729: siRNA targeting CD48 (sense 5'-uguuAuAcuuGccaAGucAdTsdT-3'; antisense 5'-UGACUUGGcAAGuAuAAcAdTsdT-3'; as printed in the source, key not given here)” the figure was 0.015 nM.

For a further data set, the system named is SIGLEC7. The experiment in a line: siRNA dose response, SIGLEC7 mRNA knockdown, Dual-Glo Luciferase Assay. Format: cell-based, human. Conditions: Hepa1-6 + reporter plasmid, 24 hr. The method, then:
as §1, §2, §3, §4
Regarding “XD-10600: siRNA targeting SIGLEC7 (sense 5'-agAGuAAccGGAAgCAuusa-3'; antisense 5'-dTAAUCCUUCCGGUUACUCUusu-3'; RNA with 2'-O-methyl and phosphorothioate modifications, case key not given here, as printed in the source, key not given here)”, the IC50 was 0.155 nM.

Values taken from patent US20210189342A1, “COMPOSITIONS AND METHODS FOR MODULATING MONOCYTE AND MACROPHAGE INFLAMMATORY PHENOTYPES AND IMMUNOTHERAPY USES THEREOF” (Verseau Therapeutics, Inc., priority 2018, published 2021).
